The test system of the assay is Botrytis cinerea. The experiment in a line: Activity against the gray mold pathogen Botrytis cinerea in the microtiter test (Botrci). As to conditions: single active, day 7 after inoculation. Format: cell-based. The protocol:
The expected efficacies of active compound combinations were determined using Colby's formula (Colby, S. R. “Calculating synergistic and antagonistic responses of herbicide combinations”, Weeds, 15, 20-22, 1967) and compared with the observed efficacies.
E=x+y−x·y/100 • E expected efficacy, expressed in % of the untreated control, when using the mixture of the active compounds A and B at the concentrations a and b • x efficacy, expressed in % of the untreated control, when using the active compound A at the concentration a • y efficacy, expressed in % of the untreated control, when using the active compound B at the concentration b
The active compounds were formulated separately as a stock solution having a concentration of 10 000 ppm in DMSO.
The active compound epoxiconazole was used as a commercial formulation.
Use example No. 1—Activity against the gray mold pathogen Botrytis cinerea in the microtiter test (Botrci)
The stock solution is pipetted onto a microtiter plate (MTP) and diluted to the stated active compound concentration using a malt-based aqueous nutrient medium for fungi. An aqueous spore suspension of Botrytis cinerea was then added. The plates were placed in a water vapor-saturated chamber at temperatures of 18° C. Using an absorption photometer, the MTPs were measured at 405 nm on day 7 after the inoculation. The measured parameters were compared to the growth of the active compound-free control variant and the fungus- and active compound-free blank value to determine the relative growth in % of the pathogens in the individual active compounds.
The visually determined values for the percentage of infected leaf area were initially converted into a mean value and then converted into efficacies in % of the untreated control. An efficacy of 0 means the same degree of infection as in the untreated control, an efficacy of 100 means 0% infection. The expected efficacies for active compound combinations were determined using Colby's formula (Colby, S. R. (Calculating synergistic and antagonistic responses of herbicide combinations”, Weeds, 15, pp. 20-22, 1967) and compared to the observed efficacies.

Consider two compounds from patent US20090099020A1, “Triazole-Based Fungicidal Mixtures” (BADF Aktiengesellschaft, priority 2005, published 2009).

Each structure is given as a SMILES string.

On to `Fc1ccc(C2(Cn3cncn3)OC2c2ccccc2Cl)cc1` (stereo not shown) [Epoxiconazole, epoxiconazole], for which the “Observed effect (%)” value by setting is: (0.016 ppm) 15%; (0.063 ppm) 48%.

As to `O=c1c2cc(F)ccc2nc(-n2cncn2)n1-c1ccc(Cl)cc1Cl` [Fluquinconazole, fluquinconazole], the “Observed effect (%)” value by setting is: (0.004 ppm) 0%; (0.25 ppm) 0%.
